Source: patent publication US8735412B2, “Sulfoximine-substituted anilinopyrimidine derivatives as CDK inhibitors, the production thereof, and use as medicine” (Bayer Intellectual Property GmbH, priority 2008, dated 2014)

Key:
[1] = target: T1, VEGF receptor tyrosine kinase-2 (Homo sapiens, UniProt P35968); assay: VEGF receptor-2 kinase assay (Assay 3); assay type: biochemical; conditions: 8 μM ATP, poly-(Glu4Tyr) substrate; read-out: VEGF-R2 (Assay 3) Concentration for 50% inhibition of enzyme activity, IC50
T1 construct: GST; made in house; host or cells: baculovirus-infected insect cells (Sf9)
T1 sequence (P35968 20-1356): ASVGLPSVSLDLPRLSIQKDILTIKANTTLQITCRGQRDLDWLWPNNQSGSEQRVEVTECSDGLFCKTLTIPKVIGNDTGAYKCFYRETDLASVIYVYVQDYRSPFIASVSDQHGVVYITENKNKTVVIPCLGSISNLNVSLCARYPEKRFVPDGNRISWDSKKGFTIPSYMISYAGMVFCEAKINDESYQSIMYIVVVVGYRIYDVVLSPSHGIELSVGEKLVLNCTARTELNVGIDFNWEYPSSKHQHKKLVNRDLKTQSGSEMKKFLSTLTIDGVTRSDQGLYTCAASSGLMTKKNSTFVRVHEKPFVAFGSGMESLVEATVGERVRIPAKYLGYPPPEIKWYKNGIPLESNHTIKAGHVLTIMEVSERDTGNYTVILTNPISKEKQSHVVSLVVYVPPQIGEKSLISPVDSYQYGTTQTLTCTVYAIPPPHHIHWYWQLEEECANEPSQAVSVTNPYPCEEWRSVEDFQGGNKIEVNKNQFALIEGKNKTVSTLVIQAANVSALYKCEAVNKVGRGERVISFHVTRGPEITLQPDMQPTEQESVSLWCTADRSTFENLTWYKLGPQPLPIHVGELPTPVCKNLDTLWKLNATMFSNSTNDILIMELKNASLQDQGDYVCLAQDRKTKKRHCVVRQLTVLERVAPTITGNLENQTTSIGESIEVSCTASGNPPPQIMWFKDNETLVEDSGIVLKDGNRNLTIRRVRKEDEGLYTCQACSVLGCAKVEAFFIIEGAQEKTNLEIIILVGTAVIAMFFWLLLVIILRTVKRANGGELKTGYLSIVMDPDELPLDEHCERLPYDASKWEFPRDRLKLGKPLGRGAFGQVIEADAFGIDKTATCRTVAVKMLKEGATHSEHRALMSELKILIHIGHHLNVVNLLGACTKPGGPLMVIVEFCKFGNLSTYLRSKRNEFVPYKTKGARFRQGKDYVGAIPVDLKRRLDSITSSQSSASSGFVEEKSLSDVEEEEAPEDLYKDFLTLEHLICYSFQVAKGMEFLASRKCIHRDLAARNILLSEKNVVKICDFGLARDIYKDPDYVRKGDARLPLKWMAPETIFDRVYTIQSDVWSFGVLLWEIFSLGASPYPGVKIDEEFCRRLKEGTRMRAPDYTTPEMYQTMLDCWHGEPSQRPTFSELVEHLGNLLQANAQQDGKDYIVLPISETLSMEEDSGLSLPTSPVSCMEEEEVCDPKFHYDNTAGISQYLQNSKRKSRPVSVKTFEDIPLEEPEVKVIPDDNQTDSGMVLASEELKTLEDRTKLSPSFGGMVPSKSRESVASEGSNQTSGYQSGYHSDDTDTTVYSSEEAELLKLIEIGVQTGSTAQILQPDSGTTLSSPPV
Description: 10.3 Assay 3: VEGF Receptor-2 Kinase Assay
Recombinant VEGF receptor tyrosine kinase-2 was purified as GST fusion protein from baculovirus-infected insect cells (Sf9). Poly-(Glu4Tyr), used as kinase substrate, was purchased from the company Sigma.
VEGF receptor tyrosine kinase (90 ng/measuring point) was incubated for 10 min at 22° C. in the presence of various concentrations of test substances (0 μM, and within the range 0.001-30 μM) in 30 μl assay buffer [40 mM Tris/HCl pH5.5, 10 mM MgCl2, 1 mM MnCl2, 3 μM Na ortho-vanadate, 1.0 mM dithiothreitol, 8 μM adenosine triphosphate (ATP), 0.96 μg/measuring point poly-(Glu4Tyr), 0.2 μCi/measuring point ^33P-gamma ATP, 1.4% dimethylsulfoxide]. The reaction was stopped by adding EDTA solution (250 mM, pH8.0, 15 μl/measuring point).
(§1) From each reaction mixture, 15 μl was applied to P30 filter strips (from Wallac), and unincorporated ^33P-ATP was removed by washing the filter strips three times, for 10 min each time, in 0.5% phosphoric acid. After drying the filter strips for 1 hour at 70° C., the filter strips were covered with scintillator strips (MeltiLex™ A, from Wallac) and stoved for 1 hour at 90° C. The amount of incorporated ^33P (substrate phosphorylation) was determined by scintillation measurement in a gamma-radiation measuring instrument (Wallac). The measured data were standardized to 0% inhibition (enzyme reaction without inhibitor) and 100% inhibition (all assay components except enzyme). The IC50 values were determined by means of a 4-parameter fit using the company's own software.

CDK1/CycB = target: T2, CDK1/CycB (Homo sapiens, UniProt P06493); assay: CDK1/CycB kinase assay (Assay 1); assay type: biochemical; conditions: 0.5 μM ATP, histon IIIS substrate; read-out: CDK1/CycB (Assay 1) Concentration for 50% inhibition of enzyme activity, IC50
T2 construct: purchased ProQinase GmbH, Freiburg; host or cells: baculovirus-infected insect cells (Sf9)
T2 sequence (P06493 whole entry): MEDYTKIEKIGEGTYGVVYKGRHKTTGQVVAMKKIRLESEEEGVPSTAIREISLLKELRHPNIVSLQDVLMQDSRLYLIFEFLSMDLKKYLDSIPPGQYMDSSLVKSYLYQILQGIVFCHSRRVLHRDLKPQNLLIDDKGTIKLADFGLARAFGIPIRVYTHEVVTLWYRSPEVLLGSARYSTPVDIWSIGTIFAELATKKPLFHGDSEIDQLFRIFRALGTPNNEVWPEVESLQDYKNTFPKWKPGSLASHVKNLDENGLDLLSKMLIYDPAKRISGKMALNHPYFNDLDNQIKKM
T2 sequence (P14635 whole entry partner): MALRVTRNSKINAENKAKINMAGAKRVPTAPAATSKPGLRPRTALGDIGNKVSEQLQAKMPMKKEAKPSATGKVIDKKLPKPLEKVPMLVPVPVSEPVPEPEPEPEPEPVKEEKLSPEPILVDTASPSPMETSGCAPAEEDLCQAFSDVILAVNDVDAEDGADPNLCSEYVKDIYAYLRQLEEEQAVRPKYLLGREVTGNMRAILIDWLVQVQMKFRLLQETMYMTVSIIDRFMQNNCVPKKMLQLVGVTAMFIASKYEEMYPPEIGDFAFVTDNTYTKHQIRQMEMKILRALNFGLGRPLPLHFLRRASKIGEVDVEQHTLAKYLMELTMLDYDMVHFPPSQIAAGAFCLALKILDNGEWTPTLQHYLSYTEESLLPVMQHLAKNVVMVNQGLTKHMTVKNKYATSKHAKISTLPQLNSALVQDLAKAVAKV
Description: 10.1 Assay 1: CDK1/CycB Kinase Assay
Recombinant CDK1 and CycB-GST fusion proteins, purified from baculovirus-infected insect cells (Sf9), were purchased from ProQinase GmbH, Freiburg. The histon IIIS used as kinase substrate is commercially available from the company Sigma.
CDK1/CycB (200 ng/measuring point) was incubated for 10 min at 22° C. in the presence of various concentrations of test substances (0 μM, and within the range 0.01-100 μM) in assay buffer [50 mM Tris/HCl pH8.0, 10 mM MgCl2, 0.1 mM Na ortho-vanadate, 1.0 mM dithiothreitol, 0.5 μM adenosine triphosphate (ATP), 10 μg/measuring point histon IIIS, 0.2 μCi/measuring point ^33P-gamma ATP, 0.05% NP40, 1.25% dimethylsulfoxide]. The reaction was stopped by adding EDTA solution (250 mM, pH8.0, 15 μl/measuring point).
as §1

[2] = tested on: HeLa-MaTu cervical carcinoma cells; assay: Proliferation assay (Assay 4), crystal violet staining; assay type: cell-based; conditions: Homo sapiens, 96 h, 4 days incubation; read-out: HeLa-MaTu (Assay 4) Concentration for 50% inhibition of cellular proliferation, IC50
Description: 10.4 Assay 4: Proliferation Assay
Cultivated human HeLa-MaTu cervical carcinoma cells (obtained from EPO-GmbH, Berlin) were plated at a density of 3000 cells/measuring point in a 96-well multititer is plate in 200 μl of growth medium (DMEM/HAMS F12, 2 mM L-glutamine, 10% fetal calf serum). After 24 hours the cells of one plate (zero-point plate) were stained with crystal violet (see below), whereas the medium of the other plates was replaced with fresh culture medium (200 μl), to which the test substances had been added at various concentrations (0 μM, and in the range 0.01-30 μM; the final concentration of the solvent dimethylsulfoxide was 0.5%). The cells were incubated for 4 days in the presence of the test substances. Cellular proliferation was determined by staining the cells with crystal violet: the cells were fixed by adding 20 μl/measuring point of an 11% glutaraldehyde solution for 15 min at room temperature. After washing the fixed cells with water three times, the plates were dried at room temperature. The cells were stained by adding 100 μl/measuring point of a 0.1% crystal violet solution (pH adjusted to pH3 by adding acetic acid). After washing the stained cells with water three times, the plates were dried at room temperature. The dye was dissolved by adding 100 μl/measuring point of a 10% acetic acid solution. The extinction was determined photometrically at a wavelength of 595 nm. The percentage change in cell growth was calculated by standardization of the measured values to the extinction values of the zero-point plate (=0%) and the extinction of the untreated (0 μM) cells (=100%). The measured data were standardized to 0% inhibition (cell proliferation without inhibitor) and 100% inhibition (zero-point plate). The IC50 values were determined by means of a 4-parameter fit using the company's own software.

[3] = tested on: HeLa-MaTu human cervical carcinoma xenograft; assay: HeLa-MaTu cervical tumor xenograft model on NMRI nude mice; assay type: in vivo; conditions: oral, 2x daily on day 5, 6, 12, 13, 19, 20
Description: HeLa-MaTu (EPO-GmbH, Berlin) human cervical carcinoma cells, which were grown in cell culture, were implanted subcutaneously in the flank of female NMRI nude mice. […] The study was terminated as soon as the tumors in one of the groups reached a size of approx. 150 mm^2.
(§2) The growth-inhibiting effect of the compounds was tested in the HeLa-MaTu cervical tumor model as xenograft on NMRI nude mice. […] Treatment of the established tumors was begun on day 4 after inoculation of the tumors.
as §2, §2
(§3) The study was designed for determining the initial response of a human cervical carcinoma xenograft model to treatments with the 5-Br comparative substance V12. The growth-inhibiting effect of the compounds was tested in the HeLa-MaTu cervical tumor model as xenograft on NMRI nude mice. V12 was dissolved completely in the solubilizer 40% polyethylene glycol 400 (PEG 400)/60% water to a final concentration of 0.7 mg/ml (group 2), 0.85 mg/ml (group 3), or 1.0 mg/ml (group 4). Treatment of the established tumors was begun on day 4 after inoculation of the tumors.
HeLa-MaTu (EPO-GmbH, Berlin) human cervical carcinoma cells, which were grown in cell culture, were implanted subcutaneously in the flank of female NMRI nude mice. […] The study was terminated as soon as the tumors in one of the groups reached a size of approx. 160 mm^2.
(§4) The growth-inhibiting effect of the compounds was tested in the HeLa-MaTu cervical tumor model as xenograft on NMRI nude mice. […] Treatment of the established tumors was begun on day 5 after inoculation of the tumors.
as §4, §4
The following test groups were used: • Group 1: Control, treatment with solubilizer (40% PEG 400/60% water) • Group 2: Compound according to WO 2005/037800 prepared according to preparation V14 disclosed above • (6 mg/kg, oral, 2x daily on day 5, 6, 12, 13, 19, 20) • Group 3: Compound according to WO 2005/037800 prepared according to preparation V14 disclosed above • (8 mg/kg, oral, 2× daily on day 5, 6, 12, 13, 19, 20) • Group 4: Compound according to WO 2005/037800 prepared according to preparation V14 disclosed above • (10 mg/kg, oral, 2× daily on day 5, 6, 12, 13, 19, 20)
as §3, with “substance V14.” for “substance V12.”, “mice. V14” for “mice. V12”, “of 0.6” for “of 0.7”, “2), 0.8” for “2), 0.85”, “day 5” for “day 4”

`C[C@@H](O)[C@@H](C)Oc1nc(Nc2ccc(S(C)(=N)=O)cc2)ncc1Br` (stereo partly shown) [Example V13] was tested, and the IC50 [1] was 140 nM, the IC50 (CDK1/CycB) was 3 nM and the IC50 [2] was 9 nM. The “reduction of tumor weight at the end of the study to % of the control group” value ([3]; 10 mg/kg (group 4), day 20) was 23%, the “tolerability of the cyclic treatment regimen” value ([3]; 10 mg/kg) was “well-tolerated” and the “effect on tumor growth (in words)” value ([3]; 6, 8, 10 mg/kg) was “dose-dependent inhibition of tumor growth”. For the same compound, the response vs control in vivo at 10 mg/kg ([3]; Mus musculus, 480 h, 10 mg/kg (group 4), day 20, read-out: treatment/control ratio T/C (tumor weight)) was 23%.
